Laboratory results published in patent publication US6582961B1, “Methods of protecting plants from pathogens” (priority 1998, dated 2003).

How the values were obtained:
Format in all cases: in vivo, Phaseolus vulgaris
[1] = test system: PR-1a gene RNA expression; test: Northern blot of PR-1a RNA in sprayed red kidney bean plants
Experimental: FIG. 1 is a northern blot of RNA probed for expression of PR-1a protein. RNA was extracted from 14 day-old red kidney bean plants 24 hours after leaves of the plants were sprayed until wet with one of five treatments. Lane 1: treatment with 3,500 ppm of peracetic acid (“PAA”). Lane 2: treatment with 10,000 ppm of PAA. Lane 3: treatment with 3,500 ppm of PAA plus 200 ppm of salicylic acid/humic acid mixture (see Example 1; hereafter “inducer mixture”). Lane 4: treatment with 10,000 ppm of PAA and 200 ppm of inducer mixture. Lane 5: treatment with 200 ppm inducer mixture, without PAA.
Fourteen-day old red kidney bean plants (Phaseolus vulgaris) were sprayed from an overhead boom until the leaves were wet and spray began to run off them. […]
The plants were then left for 24 hours, after which the leaves were subjected to extraction of their total RNA by the procedure described in Logemann, J., et al, “Improved method for the isolation of RNA from plant tissues.” Anal Biochem. 163:16-20 (1987). […] Hybridization was observed and analyzed by chemiluminescent detection of the bound probes using the “Genius System,” (Boehringer Mannheim Corporation, Indianapolis, Ind.), following the manufacturer's directions. […]

[2] = test system: phenylalanine ammonia lyase (PAL) mRNA; test: Northern blot of phenylalanine ammonia lyase (PAL) mRNA in sprayed bean plants
Experimental: FIG. 2 is a northern blot of RNA probed for expression of phenylalanine ammonia lyase (“PAL”). RNA was extracted from 14 day-old red kidney bean plants 24 hours after leaves of the plants were sprayed until wet with one of four treatments. Lane 1: water-only control. Lane 2: treatment with 3,500 ppm of PAA. Lane 3: treatment with 10,000 ppm of PAA. Lane 4: treatment with 3,500 ppm of PAA plus 200 ppm of inducer mixture.
Bean plants were grown and treated in the same manner as in the previous Example, except that a water-only control was run, but not a test of systemic inducer without PAA. Total RNA was extracted and gels were loaded, run, and analyzed following the procedures discussed in previous Example, with the exception that no lane was run containing RNA from plants sprayed with a systemic inducer without an ROS present. Probe for PAL mRNA transcripts was prepared following the procedures set forth in Blee, K. A., and Anderson, A. J. “Defense-related transcript accumulation in Phaseolus vulgaris L. colonized by the arbuscular mycorrhizal fungus Glomus intraradices Schenck & Smith.” Plant Physiol. 110: 675-688 (1996).

[3] = test system: hydroxyproline-rich glycoprotein (HYP) RNA; test: Northern blot of hydroxyproline-rich glycoprotein (HYP) RNA in sprayed bean plants
Experimental: FIG. 3 is a northern blot of RNA probed for expression of hydroxyproline-rich glycoproteins (“HPRG” or “HYP”). RNA was extracted from 14 day-old red kidney bean plants 24 hours after leaves of the plants were sprayed until wet with one of five treatments. Lane 1: water-only control. Lane 2: treatment with 3,500 ppm of PAA. Lane 3: treatment with 10,000 ppm of PAA. Lane 4: treatment with 3,500 ppm of PAA plus 200 ppm of inducer mixture. Lane 5: treatment with 10,000 ppm of PAA plus 200 ppm of inducer mixture. Lane 6: treatment with 200 ppm of inducer mixture, without presence of PAA.
Bean plants were grown and treated as in Example 2. Total RNA was extracted and gels were loaded, run, and analyzed following the procedures discussed in Example 2. Probes for HYP were prepared following the procedures set forth in Blee and Anderson, supra.

## CC(=O)OO [peracetic acid]
[1]; peracetic acid 3,500 ppm, leaves sprayed, RNA after 24 hours, FIG. 1 lane 1
  PR-1a gene RNA expression: increased
[1]; peracetic acid 10,000 ppm, 24 hours, FIG. 1 lane 2
  PR-1a gene RNA expression: higher amounts
[2]; peracetic acid 3,500 ppm, 24 hours, FIG. 2 lane 2
  mRNA for PAL genes: increase in mRNA for PAL genes over that of the water control
[2]; peracetic acid 10,000 ppm, compared to 3,500 ppm, FIG. 2 lane 3
  mRNA for PAL genes: substantial increase
[3]; peracetic acid 3,500 ppm, FIG. 3 lane 2
  RNA levels from HYP genes: increase in RNA levels from HYP genes over that of the water control
[3]; peracetic acid 10,000 ppm, compared to 3,500 ppm, FIG. 3 lane 3
  RNA levels from HYP genes: substantially more hybridizing RNA
